Data: ChEMBL document CHEMBL3045176, “Occurrence of the antifeedant 14,15-dihydroajugapitin in the aerial parts of Ajuga iva from Algeria” (2000)

Tests used:
Spodoptera littoralis = assay: Antifeedant activity against final stadium larvae of Spodoptera littoralis in compound-treated sucrose-treated glass-fibre disks assessed as amount of disks eaten at 100 ppm after 18 hr by binary choice feeding bioassay; format: functional
Spodoptera frugiperda = assay: Antifeedant activity against final stadium larvae of Spodoptera frugiperda (fall armyworm) in compound-treated sucrose-treated glass-fibre discs assessed as amount of discs eaten at 100 ppm after 18 hr by binary choice feeding bioassay; format: functional

Structure (SMILES)	AFI (Spodoptera littoralis) [%]	AFI (Spodoptera frugiperda) [%]
CC[C@H](C)C(=O)O[C@H]1[C@H](O)C[C@@H]2[C@@](C)([C@@H]3C[C@H]4CCO[C@H]4O3)[C@H](C)C[C@H](OC(C)=O)[C@@]2(COC(C)=O)[C@@]12CO2 [14,15-DIHYDROAJUGAPITIN]	76	74
CC[C@H](C)C(=O)O[C@H]1[C@@H](O)C[C@@H]2[C@@](C)([C@@H]3C[C@H]4CCO[C@H]4O3)[C@H](C)C[C@H](OC(C)=O)[C@@]2(COC(C)=O)[C@@]12CO2 [IVAIN IV]	48	61
